PMC2858410 (The Journal of comparative neurology, 2008)

Columns and labels:
[1] = target: T1, human α2A-adrenergic receptor (hα2A; αh2A) (Homo sapiens, UniProt P08913); experiment: radioligand binding, filtration, Sf9 membranes; settings: labelled compound, […]; […] Tris-HCl pH […] MgCl2, […] EDTA; […] h
T1 sequence (P08913 1-465): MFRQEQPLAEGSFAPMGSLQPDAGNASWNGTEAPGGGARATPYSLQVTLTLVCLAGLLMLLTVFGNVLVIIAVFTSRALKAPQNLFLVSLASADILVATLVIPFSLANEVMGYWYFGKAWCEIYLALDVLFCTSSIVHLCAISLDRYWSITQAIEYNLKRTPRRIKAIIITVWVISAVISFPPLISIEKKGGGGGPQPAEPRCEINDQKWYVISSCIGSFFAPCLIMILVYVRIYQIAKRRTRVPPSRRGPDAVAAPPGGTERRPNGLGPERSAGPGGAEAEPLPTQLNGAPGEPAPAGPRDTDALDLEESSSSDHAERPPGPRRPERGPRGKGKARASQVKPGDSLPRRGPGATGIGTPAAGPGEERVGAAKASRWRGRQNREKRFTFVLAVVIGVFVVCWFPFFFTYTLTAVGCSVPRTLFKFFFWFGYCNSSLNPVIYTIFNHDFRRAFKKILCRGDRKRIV

[2] = target: T1, human α2A-adrenergic receptor (hα2A; αh2A); experiment: [3H]RX821002 displacement, filtration, Sf9 membranes; type: binding; settings: […] [3H]RX821002; […] Tris-HCl pH […] MgCl2, […] EDTA

| SMILES | radioligand binding, filtration, Sf9 membranes [1] | [3H]RX821002 displacement, filtration, Sf9 membranes [2] |
| --- | --- | --- |
| COC1(C2=NCCN2)COc2ccccc2O1 (stereo not shown) [RX821002] | [^3H]RX821002 binding was concentration-dependently inhibited by increasing concentrations of both norepinephrine and dopamine |  |
| CN1CCc2cc(Cl)c(O)cc2[C@@H](c2ccccc2)C1 [SCH-23390] |  | apomorphine, SCH-23390 and clozapine display a substantial affinity for α2a-adrenergic receptors |
| CN1CCc2cccc3c2[C@H]1Cc1ccc(O)c(O)c1-3 [apomorphine] |  | apomorphine, SCH-23390 and clozapine display a substantial affinity for α2a-adrenergic receptors |
| CN1CCN(C2=Nc3cc(Cl)ccc3Nc3ccccc32)CC1 [clozapine] |  | apomorphine, SCH-23390 and clozapine display a substantial affinity for α2a-adrenergic receptors |
